According to patent US12161634B2, “Pyruvate kinase R (PKR) activating compositions” (Novo Nordisk Health Care AG, priority 2020, dated 2024):

Experiment: Dynamic vapor sorption (DVS)
Assay type: physicochemical
Details: for hygroscopicity: DVS at RT; for water uptake from 60% RH to 80% RH / water uptake up to 60% RH: DVS; for water uptake from 60% RH to 80% RH / water uptake up to 60% RH / form change before and after DVS test: RT; for water uptake up to 60% RH: up to 60% RH (ambient condition); for form change before and after DVS test: determined by XRPD
Protocol: Dynamic Vapor Sorption (DVS) was measured with a Surface Measurement System (SMS) DVS Intrinsic.

Row | hygroscopicity | water uptake from 60% RH to 80% RH [%] | water uptake up to 60% RH [%] | form change before and after DVS test | SMILES
1 | hygroscopic | 0.4 | 2.9 | No form change | O=C([C@H](CO)c1ccccc1)N1CC2=C(C1)CN(S(=O)(=O)c1cnc3c(c1)OCCO3)C2 [Type B, (S)-1-(5-[2H,3H-[1,4]dioxino[2,3-b]pyridine-7-sulfonyl]-1H,2H,3H,4H,5H,6H-pyrrolo[3,4-c]pyrrol-2-yl)-3-hydroxy-2-phenylpropan-1-one]
2 | hygroscopic | 0.5 | 1.8 | No form change | O=C([C@H](CO)c1ccccc1)N1CC2=C(C1)CN(S(=O)(=O)c1cnc3c(c1)OCCO3)C2 [Type C, (S)-1-(5-[2H,3H-[1,4]dioxino[2,3-b]pyridine-7-sulfonyl]-1H,2H,3H,4H,5H,6H-pyrrolo[3,4-c]pyrrol-2-yl)-3-hydroxy-2-phenylpropan-1-one]
